Test results taken from PubChem BioAssay (NCI).
Where “and” joins values, the source holds several entries; their conditions need not be identical. Equal values may be shown once.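 Where inhibition never reached the appropriate level, the endpoint shown equals the highest concentration tested. Otherwise, values were interpolated linearly from a five-concentration, 48-hour dose response in 96-well plates. Here, GI50 denotes the concentration required for 50% inhibition of growth. TGI: concentration producing complete growth inhibition.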

Tests used:
Test in all cases: NCI tumour cell line growth inhibition, 48 h
[1] = test system: DLD-1 colon
[2] = test system: DMS 114 small cell lung
[3] = test system: HOP-18 NSCLC
[4] = test system: KM20L2 colon
[5] = test system: LXFL 529 NSCLC
[6] = test system: M19-MEL melanoma
[7] = test system: RXF-631 renal
[8] = test system: XF 498 CNS
[9] = test system: P388 leukemia
[10] = test system: P388/ADR leukemia
[11] = test system: SN12K1 renal

O=C(CSSCC(=O)OCCS(=O)(=O)Nc1ccc(Br)cc1)OCCS(=O)(=O)Nc1ccc(Br)cc1
TGI [1]: > 100 µM
TGI [2]: 29.3 µM
TGI [3]: > 100 µM
TGI [4]: > 100 µM
TGI [5]: 34.1 µM
TGI [6]: 56.4 µM

COc1ccc(N=Nc2c(N)nn(C)c2N)cc1
TGI [1]: > 100 µM
TGI [2]: > 100 µM
TGI [3]: > 100 µM
TGI [4]: > 100 µM
TGI [5]: > 100 µM
TGI [6]: > 100 µM
TGI [7]: > 100 µM

COc1ccc(N=Cc2ccc(N(CCC#N)S(=O)(=O)c3ccccc3)cc2C)cc1
TGI [2]: > 100 µM
TGI [3]: > 100 µM
TGI [4]: > 100 µM
TGI [5]: > 100 µM
TGI [6]: > 100 µM
TGI [7]: > 100 µM
TGI [8]: > 100 µM

COc1cc(C2C(=O)C(Cl)N2Nc2nc(C)cc(=O)[nH]2)cc(OC)c1OC (configuration not stated)
TGI [3]: 28.1 µM
TGI [4]: 66.5 µM
TGI [5]: 29.7 µM
TGI [6]: > 100 µM

C[C@H]1CCC/C=C/[C@@H]2C[C@H](O)C[C@H]2[C@H](O)/C=C/C(=O)O1
GI50 [1]: 0.0381 µM
TGI [1]: 17.3 µM
TGI [3]: 2.41 µM
TGI [4]: 0.0368 µM and 0.0279 µM
GI50 [5]: 0.031 µM
TGI [5]: 0.0285 µM and 0.11 µM
TGI [6]: 0.00129 µM
TGI [7]: 0.272 µM

CCCCCCCCCCCCSC(=S)c1c(C)[nH]n(CCCCCCCCCCCC)c1=O
TGI [1]: > 100 µM
TGI [2]: > 100 µM
TGI [3]: > 100 µM
TGI [4]: > 100 µM
TGI [5]: > 100 µM
TGI [6]: > 100 µM
TGI [7]: > 100 µM

CCN(CCO)CCNc1ccc(C)c2sc3ccccc3c(=O)c12
TGI [1]: 14.2 µM
TGI [2]: 20.6 µM
TGI [3]: 24.3 µM
TGI [4]: 7.27 µM
TGI [5]: 10.4 µM
TGI [6]: 3.63 µM
TGI [8]: 10 µM

O=C([CH-]C(=O)c1ccccc1)c1ccccc1.O=C([CH-]C(=O)c1ccccc1)c1ccccc1.O=C([CH-]C(=O)c1ccccc1)c1ccccc1.[Cl-].[Hf+4]
GI50 [3]: 5.66 µM
TGI [3]: 24.8 µM
GI50 [4]: 34.2 µM
TGI [4]: > 100 µM

CCCCCCCCCCCCCCCCCC(=O)OCC1OC(OC)C(NC(=O)N(CCCl)N=O)C(O)C1O (configuration not stated)
TGI [1]: > 100 µM
TGI [3]: > 100 µM
TGI [5]: 37.5 µM
TGI [6]: > 100 µM
TGI [8]: 44 µM

O=C(NC(Cc1ccc(Cl)cc1)C(=O)O)c1ccc(I)cc1 (configuration not stated)
TGI [1]: > 100 µM
TGI [3]: > 100 µM
TGI [6]: > 100 µM
TGI [9]: > 100 µM
TGI [10]: > 100 µM
TGI [11]: > 100 µM
TGI [8]: > 100 µM
